Experimental data from PMC11249637, “Interaction of the Atypical Tetracyclines Chelocardin and Amidochelocardin with Renal Drug Transporters” (ACS Pharmacology & Translational Science, 2024).

Tests used:
mOat1 = biological target: T1, mOat1 (Mus musculus, UniProt Q8VC69); assay: Two-point inhibition of mOat1-mediated PAH uptake in transfected HEK293 cells; type: in vitro ADME; details: PAH 10 μM, 1 min
T1 construct: expressed in transfected cells; host or cells: HEK293
T1 sequence (Q8VC69 1-545): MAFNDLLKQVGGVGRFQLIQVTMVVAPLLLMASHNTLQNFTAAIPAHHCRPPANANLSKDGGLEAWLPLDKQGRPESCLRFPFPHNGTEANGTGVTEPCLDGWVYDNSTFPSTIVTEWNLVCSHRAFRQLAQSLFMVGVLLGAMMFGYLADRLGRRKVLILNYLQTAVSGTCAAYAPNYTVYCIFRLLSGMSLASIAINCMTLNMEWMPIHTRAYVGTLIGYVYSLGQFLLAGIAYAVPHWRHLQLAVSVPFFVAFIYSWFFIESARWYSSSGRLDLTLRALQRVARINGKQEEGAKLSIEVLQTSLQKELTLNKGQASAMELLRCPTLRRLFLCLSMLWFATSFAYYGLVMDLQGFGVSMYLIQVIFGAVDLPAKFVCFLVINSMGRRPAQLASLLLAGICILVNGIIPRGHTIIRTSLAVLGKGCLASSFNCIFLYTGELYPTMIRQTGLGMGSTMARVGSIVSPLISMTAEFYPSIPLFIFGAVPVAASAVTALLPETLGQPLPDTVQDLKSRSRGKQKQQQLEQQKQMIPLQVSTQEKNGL
Procedure: Well-characterized mOct1-, mOct2-, mOat1-, mOat2-, mOat3-, mMate1-, hOAT1-, hOAT3-, hOAT4-, hMRP2-, mMdr1a- and mMdr1b-transfected HEK293 cells and the respective vector-transfected control HEK293 cells were used.[42],[51],[52] All HEK293 cells (transporter-transfected and vector-transfected) were cultured in DMEM (Sigma, high glucose, 10% FBS, 1% penicillin (10,000 Units/mL)/streptomycin (10 mg/mL)) at 37°C under 5% CO2 in humidified atmosphere. The cells were routinely checked for the absence of mycoplasma infection. For the preparation of HEK293 cell monolayers, 24-well plates were pretreated with a poly-D-lysine hydrobromide solution (0.1 mg/mL). Each well was coated with 0.5 mL of poly-D-lysine solution and incubated for at least 15 min. After complete removal of the solution, the plates were dried for 30 min. Cells (vector-transfected and transporter-transfected) treated with trypsin were immediately seeded into 24-well plates and cultured for 3 days before being used for transport experiments.
For the uptake assay, the growth medium was aspirated, and each well was rinsed three times with 0.5 mL of incubation buffer (HBSS supplemented with 20 mM HEPES, pH 7.4) and incubated for 20 min at 37 °C. Afterward, buffers were removed, and 200 μL of the incubation buffer containing a radiolabeled substrate and the nonlabeled CHD and CDCHD or reference inhibitor (Table S1), respectively, was added to each well and incubated at 37 °C for designated time intervals. […] Cells were solubilized with 0.6 mL of 1N NaOH overnight and transferred into scintillation vials. ^3H and ^14C contents were measured after the addition of 2.5 mL of scintillator in a liquid scintillation counter.
The cellular protein amount was determined in parallel for each cell line (vector- and transporter-transfected) from six wells in a different 24-well reference plate using the Bradford method. […]
The inhibitory effect (I(%)) was calculated according to the formula: [drawing 5] […]

[1] = design: method as in PMID 339024; details: phase II clinical trial, 1970s; cited from earlier work

CC(=O)C1=C(O)[C@@H](N)[C@H]2Cc3c(c(O)c4c(O)c(C)ccc4c3C)C(=O)[C@@]2(O)C1=O [CHD, chelocardin]
inhibitory effect on mOat1 (mOat1; 1 and 10 μM tested): less than 50% | inhibitory effect on mOat1 (in words) (mOat1; 1 and 10 μM): concentration-dependent inhibitory effects | inhibition at 10 µM (mOat1; HEK293, at 10 μM, read-out: inhibitory effect on mOat1): ~50% | concentrations in urine [1]: 11000 to 14000 ng/mL | plasma concentrations [1]: 1000 to 3000 ng/mL
